Legend:
[1] = molecular target: T1, human recombinant 5-HT2C receptor (Homo sapiens, UniProt P28335); experiment: Test Example 2: 5-HT2C receptor binding inhibition test ([3H]-Mesulergine; non-specific ligand Serotonin HCl); settings: [3H]-Mesulergine; non-specific binding with 500 µmol/L Serotonin HCl; 37°C, 2 hours
T1 construct: expressed in transfected cells; host or cells: Jump-In HEK cells (membrane preparation)
T1 sequence (P28335 33-458): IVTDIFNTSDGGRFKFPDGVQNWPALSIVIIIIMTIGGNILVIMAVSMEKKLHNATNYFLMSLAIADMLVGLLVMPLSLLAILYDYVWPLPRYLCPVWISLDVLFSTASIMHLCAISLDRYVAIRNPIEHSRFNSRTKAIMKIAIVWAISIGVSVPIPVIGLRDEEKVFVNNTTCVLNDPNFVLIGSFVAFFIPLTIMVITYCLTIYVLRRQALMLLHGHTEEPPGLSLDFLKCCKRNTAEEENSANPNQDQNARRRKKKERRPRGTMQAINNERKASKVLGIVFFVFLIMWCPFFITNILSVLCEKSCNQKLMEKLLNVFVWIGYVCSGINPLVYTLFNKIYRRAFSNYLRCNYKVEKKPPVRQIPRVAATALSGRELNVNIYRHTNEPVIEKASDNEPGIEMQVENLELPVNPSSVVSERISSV
Procedure, shortened: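 Filtration binding to membranes bearing human 5-HT2C with [3H]-mesulergine, 2 h at 37°C; non-specific binding defined with 500 µmol/L serotonin HCl, total binding with vehicle. Inhibition rate computed from cpm; Ki derived from dose-response curve, with ligand Kd from Scatchard analysis of saturation binding.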

[2] = molecular target: T2, human recombinant 5-HT2A receptor (Homo sapiens, UniProt P28223); experiment: Test Example 1: 5-HT2A receptor binding inhibition test ([3H]-Ketanserin; non-specific ligand Serotonin HCl)
T2 construct: expressed in transfected cells; host or cells: Jump-In HEK cells (membrane preparation)
Description: The Kd value is calculated when the lot of the cell membrane is changed. 1 mmol/L non-specific binding calculating compound dissolved in DMSO or DMSO is previously dispensed to the microplate by 0.5 µL, and the cell membrane is diluted with an Assay buffer. The radioactive ligand solution is diluted step by step, and counts are checked with a liquid scintillator. The Assay buffer containing diluted cell membranes is dispensed by 50 µL/well into the microplate. The radioactive ligand solution is then dispensed by 50 µL/well into the microplate and the plate is sealed. The microplate is allowed to stand for 1.5 hours at room temperature (25°C). During this time, 50 mmol/L Tris-HCl (pH 7.4) is dispensed by 50 µL/well on the GF/B UniFilter plate and allowed to stand at 4°C for 1 hour or longer. Thereafter, filtration is performed with a Cell Harvester (PerkinElmer). The radioactive ligand solution is dispensed by 10 µL/well into empty wells of the GF/B UniFilter plate. After drying the GF/B UniFilter plate at room temperature, MicroScinti20 is dispensed by 50 µL/well into the GF/B UniFilter plate, and the plate is sealed. GF/B UniFilter plate is allowed to stand at room temperature overnight. The radioactivity of [^3H]-Ketanserin bound to the 5-HT2A receptor is measured using Microbeta2 (PerkinElmer) at a measurement time of 1 min/well. The Saturation curve is drawn from the measured value, and the Kd value is calculated from the slope of the Scatchard Plot.
A compound solution dissolved in DMSO is dispensed to a microplate by 0.5 µL, and a cell membrane and a hot ligand are each diluted with an Assay buffer. The Assay buffer containing diluted cell membrane is then dispensed by 50 µL/well into the microplate. The radioactive ligand solution is then dispensed by 50 µL/well into the microplate and the plate is sealed. Thereafter, the microplate is allowed to stand at room temperature (25°C) for 1.5 hours. During this time, 50 mmol/L Tris-HCl (pH 7.4) is dispensed by 50 µL/well into the GF/B UniFilter plate and allowed to stand at 4°C for 1 hour or longer. Thereafter, filtration is performed with a Cell Harvester (PerkinElmer). After drying the GF/B UniFilter plate at room temperature, MicroScinti20 is dispensed by 50 µL/well into the GF/B UniFilter plate, and the plate is sealed. GF/B UniFilter plate is allowed to stand at room temperature overnight. The radioactivity of [^3H]-Ketanserin bound to the 5-HT2A receptor is measured using Microbeta2 (PerkinElmer) at a measurement time of 1 min/well. Non-specific binding is calculated from the radioactivity of [^3H]-Ketanserin in the presence of 500 µmol/L Serotonin HCl of unlabeled ligand, and total binding is calculated from the radioactivity of [^3H]-Ketanserin in the absence of the compound of the present invention (Vehicle). Finally, the Ki value is calculated from the dose-response curve.
(The binding activity of the compound according to the present invention is calculated from the following binding inhibition rate (%).) Inhibition rate (%) = [1−(c−a)/(b−a)] × 100 [formula] • a; average cpm of non-specific binding • b; average cpm of total binding • c; cpm in the presence of the test compound
The compounds of the present invention were tested essentially as described above.

[3] = molecular target: T1, human recombinant 5-HT2C receptor; experiment: Test Example 2-2: 5-HT2C receptor binding inhibition test ([3H]-Mesulergine; non-specific ligand Ketanserin); settings: non-specific binding with 500 µmol/L Ketanserin, 37°C, 2 hours
Procedure, shortened: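 Membranes expressing the receptor were incubated with compound and [3H]-Mesulergine for 2 h at 37 °C, then filtered and counted by scintillation. Non-specific binding was defined with 500 µmol/L Ketanserin. Percent inhibition versus vehicle gave dose-response curves, from which Ki was derived using a Kd from Scatchard saturation analysis.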

[4] = molecular target: T2, human recombinant 5-HT2A receptor; experiment: Test Example 1-2: 5-HT2A receptor binding inhibition test ([3H]-Ketanserin; non-specific ligand Ketanserin)
Procedure, shortened: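 Membranes expressing the receptor were incubated with [3H]-ketanserin and compound for 1.5 h at 25 °C, then filtered onto plates presoaked in 50 mmol/L Tris-HCl pH 7.4 and scintillation-counted. Non-specific binding was defined with 500 µmol/L unlabeled ketanserin. Ki was taken from dose-response curves, with Kd set for each membrane lot by Scatchard analysis.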

[5] = [3H]-Ketanserin, non-specific binding with 500 µmol/L Serotonin HCl, room temperature (25°C), 1.5 hours, read-out: h 5-HT2A Ki
[6] = [3H]-Ketanserin, non-specific binding with 500 µmol/L Ketanserin, room temperature (25°C), 1.5 hours, read-out: h 5-HT2A Ki

T2 sequence (P28223 whole entry): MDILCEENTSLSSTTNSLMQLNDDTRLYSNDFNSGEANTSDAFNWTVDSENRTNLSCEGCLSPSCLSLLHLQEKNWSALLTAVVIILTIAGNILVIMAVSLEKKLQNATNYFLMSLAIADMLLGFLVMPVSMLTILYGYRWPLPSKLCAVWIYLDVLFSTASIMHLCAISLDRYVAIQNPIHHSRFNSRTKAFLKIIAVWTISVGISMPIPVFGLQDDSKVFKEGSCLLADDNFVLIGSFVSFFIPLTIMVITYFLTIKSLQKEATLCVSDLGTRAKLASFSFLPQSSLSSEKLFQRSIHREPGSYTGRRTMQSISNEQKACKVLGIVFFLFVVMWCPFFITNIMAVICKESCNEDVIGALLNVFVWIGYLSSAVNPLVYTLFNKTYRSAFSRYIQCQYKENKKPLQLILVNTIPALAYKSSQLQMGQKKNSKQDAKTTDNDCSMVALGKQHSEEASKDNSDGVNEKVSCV

Row | Structure (SMILES) | Ki [3] [pM] | Ki [4, 6] [pM] | other results
1 | Cn1ncc(Br)c1-c1cc(Nc2ncc(C(F)(F)F)s2)ccc1OCCO [Compound I-005] |  |  | Ki [1]: 1080 pM; Ki [2, 5]: 301 pM
2 | Cn1ncc(Br)c1-c1cc(Nc2ccc(F)cc2)ccc1OCCO [Compound I-003] |  |  | Ki [1]: 11400 pM; Ki [2, 5]: 597 pM
3 | Cn1nccc1-c1cc(Nc2ncc(C(F)(F)F)cc2F)ccc1OCCO [Compound I-009] |  |  | Ki [1]: 8700 pM; Ki [2, 5]: 337 pM
4 | Cn1ncc(Br)c1-c1cc(Nc2ccc(C(F)(F)F)cc2)ccc1OCCO [Compound I-001] |  |  | Ki [1]: 1440 pM; Ki [2, 5]: 447 pM
5 | Cn1ncc(Br)c1-c1cc(Nc2ccc(C(F)(F)F)nn2)ccc1OCCO [Compound I-007] |  |  | Ki [1]: 14900 pM; Ki [2, 5]: 548 pM
6 | Cc1noc(C)c1-c1cc(Nc2ncc(C(F)(F)F)cc2F)c(F)cc1OCCO [Compound I-147] | 4750 | 259 | 
7 | Cc1ncnc(C)c1-c1cc(Nc2ncc(Cl)cc2F)ccc1OCCO [Compound I-057] | 5300 | 386 | 
8 | Cn1ncc(Br)c1-c1cc(Nc2ccc(CC(F)(F)F)cn2)ccc1OCCO [Compound I-094] | 202 | 258 | 
9 | Cn1ncc(Br)c1-c1cc(Nc2ncc(Cl)cc2F)ccc1OCCO [Compound I-017] | 415 | 266 | 
10 | Cn1ncc(Br)c1-c1cc(Nc2ncc(-c3ccccc3)s2)ccc1OCCO [Compound I-039] | 245 | 319 | 
11 | Cn1ncc(Br)c1-c1cc(Nc2ccc(C(F)(F)F)nc2)ccc1OCCO [I-002] |  |  | Ki [1]: 19200 pM; Ki [2]: 375 pM
12 | Cn1ncc(Cl)c1-c1cc(Nc2ncc(Cl)cc2F)ccc1OCCO [Compound I-136] | 277 | 167 | 
13 | Cn1ncc(Br)c1-c1cc(Nc2ccc(C(C)(F)F)cn2)ccc1OCCO [Compound I-080] | 2740 | 445 | 
14 | Cn1ncc(Br)c1-c1cc(Nc2ccc(C3CC3)cn2)cnc1OCCO [Compound I-128] | 452 | 258 | 
15 | Cn1cnc(F)c1-c1cc(Nc2ncc(C(F)(F)F)cc2F)ccc1OCCO [Compound I-106] | 7280 | 409 | 
16 | Cn1ncc(F)c1-c1cc(Nc2ncc(C(F)(F)F)cc2F)c(F)cc1OCCO [Compound I-145] | 4760 | 202 | 
17 | Cc1cnn(C)c1-c1cc(Nc2ncc(Cl)cc2F)cnc1OCCO [Compound I-141] | 4070 | 296 | 
18 | Cn1ncc(Cl)c1-c1cc(Nc2ncc(C(F)(F)F)cc2F)ccc1OCCO [Compound I-015] | 248 | 195 | 
19 | Cc1ncnc(C)c1-c1cc(Nc2ncc(C(F)(F)F)cc2F)ccc1OCCO [Compound I-050] | 1690 | 395 | 
20 | Cn1ncc(Br)c1-c1cc(Nc2nc3cnccc3s2)ccc1OCCO [Compound I-076] | 3000 | 211 | 
21 | Cn1ncc(Cl)c1-c1cc(Nc2ncc(C(F)(F)F)cc2F)cnc1OCCO [Compound I-142] | 195 | 269 | 
22 | Cc1ncnc(C)c1-c1cc(Nc2ncc(C(F)(F)F)cc2F)cnc1OCCO [Compound I-134] | 13200 | 621 | 

Row | Structure (SMILES) | Ki [3] [pM] | Ki [4, 6] [pM] | other results
23 | Cn1ncc(Cl)c1-c1cc(Nc2ncc(Cl)cc2F)ncc1OCCO [Compound I-156] | 1780 | 315 | 
24 | Cn1ncc(Br)c1-c1cc(Nc2ncc(Cl)cc2F)ncc1OCCO [Compound I-155] | 1040 | 318 | 
25 | Cn1ncc(C#N)c1-c1cc(Nc2ncc(C(F)(F)F)cc2F)ncc1OCCO [Compound I-072] | 4640 | 412 | 
26 | Cn1ncc(Br)c1-c1cc(Nc2ncc(C#N)cc2F)ccc1OCCO [Compound I-044] | 15100 | 626 | 
27 | Cn1ncc(Br)c1-c1cc(Nc2ncc(Cl)s2)cnc1OCCO [Compound I-130] | 3260 | 256 | 
28 | Cn1ncc(Br)c1-c1cc(Nc2nc(C(F)(F)F)cs2)ccc1OCCO [Compound I-036] | 1920 | 344 | 
29 | Cn1ncc(Br)c1-c1cc(Nc2nccn3c(Br)cnc23)ccc1OCCO [Compound I-114] | 4680 | 1560 | 
30 | Cn1ncc(F)c1-c1cc(Nc2ncc(Cl)cc2F)ccc1OCCO [Compound I-086] | 8840 | 205 | 
31 | Cn1ncc(Br)c1-c1cc(Nc2ncc(Cl)cn2)c(F)cc1OCCO [Compound I-149] | 1350 | 365 | 
32 | Cn1ncc(Br)c1-c1cc(Nc2nccc3ccccc23)ccc1OCCO [Compound I-112] | 25500 | 276 | 
33 | Cn1ncc(C#N)c1-c1cc(Nc2ccc(C(F)(F)F)cn2)ccc1OCCO [Compound I-099] | 7150 | 224 | 
34 | Cc1n[nH]c(C)c1-c1cc(Nc2ncc(C(F)(F)F)cc2F)ccc1OCCO [Compound I-023] | 3620 | 246 | 
35 | Cn1ncc(Br)c1-c1cc(Nc2ccc(OC(F)F)cn2)ccc1OCCO [Compound I-060] | 184 | 158 | 
36 | OCCOc1ccc(Nc2ncc(C(F)(F)F)cc2F)cc1-c1ccncc1Cl [Compound I-011] | 4550 | 133 | 
37 | C#Cc1cnn(C)c1-c1cc(Nc2ncc(C(F)(F)F)cc2F)ccc1OCCO [I-058] | 456 |  | Ki [4]: 418 pM
38 | Cn1ncc(Br)c1-c1cc(Nc2ccc(C(F)(F)F)cn2)cnc1OCCO [Compound I-081] | 457 | 202 | 
39 | Cn1ncc(Br)c1-c1cc(Nc2ncc(C3CC3)cn2)cnc1OCCO [Compound I-133] | 2530 | 322 | 
40 | Cn1cnc(Br)c1-c1cc(Nc2ncc(Cl)cc2F)ccc1OCCO [Compound I-096] | 1660 | 341 | 
41 | CCn1ncc(Br)c1-c1cc(Nc2ncc(C(F)(F)F)cc2F)ccc1OCCO [Compound I-066] | 170 | 222 | 
42 | Cn1ncc(Br)c1-c1cc(Nc2ccc(C(F)(F)F)cn2)ccc1OCCO [Compound I-004] |  |  | Ki [1]: 387 pM; Ki [2, 5]: 420 pM
43 | Cn1ncc(Cl)c1-c1cc(Nc2ncc(C(F)(F)F)cc2F)ncc1OCCO [Compound I-115] | 818 | 265 | 

— patent EP4631938A1, “NITROGEN-CONTAINING HETEROCYCLE WITH SEROTONIN RECEPTOR-BINDING ACTIVITY AND CARBOCYCLIC DERIVATIVE” (Shionogi & Co., Ltd, priority 2022, dated 2024)
